Experimental data: patent US11999769B2, “Method for isolating and purifying bacteriocin against drug-resistant Staphylococcus aureus” (Zhejiang Gongshang University, priority 2022, dated 2024)

Tested on: S. aureus D48
Assay: effect on membrane potential difference, DiSC2(5) fluorescent probe
Format: cell-based, Staphylococcus aureus
Details: bacteriocin 1×MIC; Triton X-100 5% solution as positive control; scanning time 15 min
Method: S. aureus D48 cells were prepared by the same method as that in Example 3, washed with a 5 mM fluorescent leakage buffer and resuspended to 5 mL to obtain a bacterial suspension. A fluorescent probe DiSC2(5) was set to have an excitation wavelength of 650 nm and an emission wavelength of 670 nm. The scanning interval was set as Ex slit: 5 nm, Em slit: 5 nm, and the scanning time was 15 min. 2 mL of the fluorescent leakage buffer, 20 μL of the bacterial suspension, and 3 μL of 0.1 mM probe DiSC2(5) were added to a fluorescence cuvette, and mixed uniformly for detection. After the fluorescence response value became stable, the L. rhamnosus ZFM216 bacteriocin solution with a final concentration of 1×MIC was quickly added in the experimental group, and the same volume of fluorescence leakage buffer and 5% Triton X-100 solution were added to the control groups respectively.
Note: The preparation method of the fluorescent leakage buffer is: 0.7455 g of potassium chloride and 0.2463 g of a magnesium sulfate heptahydrate solution are accurately weighed, 22.5 mL of a 20% glucose solution and 10 mL of a phosphate buffer solution are measured, the volume is diluted to 100 mL with ultrapure water, the pH is adjusted to 7, and the prepared fluorescent leakage buffer is stored at 4° C. for later use.

Triton X-100 [TritonX-100]
fluorescence intensity of S. aureus D48 bacterial suspension (DiSC2(5)): rapidly increased to the highest value
